Source: PMC12966202 (Molecular Imaging and Biology, 2025)
Values joined by “and” are separate entries in the source; they are usually repeats but may differ in a detail not shown here. Equal entries are not always repeated.

Method: Subjects with localized known or suspected infection were recruited and provided informed consent according to guidelines of the University of Pennsylvania Institutional Review Board. […] The full study protocols are available at clinicaltrials.gov, NCT03424525 and were performed under the authority of the University of Pennsylvania Radioactive Drug Research Committee.
PET scans were acquired from head to mid-thigh over 15 min in 10 overlapping bed positions at 90 s per bed position with ~ 50% bed overlap. The first PET scan was started immediately following injection, followed by a second scan at 20 ± 3 min post-injection, and a third scan at 63 ± 4 min post-injection. Suspected infections outside of the dosimetry scan field of view were optionally imaged following the acquisition of the final dosimetry scan. Subjects had the option to void bladders between the second and third PET/CT scans and following the last scan, without urine collection. Images were reconstructed using a list-mode time-of-flight ordered subsets expectation maximization algorithm (TOF-OSEM). […] These images were reconstructed using TOF-OSEM, but were not included in the quantitative dosimetry results (Fig. 2).
Total activity in the brain, gallbladder, heart, intestines, kidneys, liver, lungs, pancreas, spleen, thyroids, and urinary bladder was assessed via PET with MIM v6.7 (MIM Software Inc.), using co-registered CT images to delineate regions of interest. To enable estimation of total activity in red bone marrow, tracer uptake and volume were measured based on activity concentrations in the 2nd to 4th lumbar vertebrae of each subject. Using a red marrow density of 1.03 g/mL and assuming that red marrow weight is 1.6% of total body weight, total red marrow activity was calculated for each subject. Time activity curves for organs were generated and in most cases fit to mono- or bi-exponential functions using OLINDA | EXM v1.1 software RRID:SCR_026835 [23]. For time activity curves that were poorly fit by exponential functions, a Riemann Sum was used to calculate numbers of disintegrations occurring in the organs. Dosimetry estimates were calculated using the Standard Adult Male phantom option in OLINDA.

[1] = average injected activity of 346 MBq (9.4 mCi)

Effective dose equivalent (Mean ± SD, n = 4 males): 6.08E-03 ± 3.49E-04 mSv/MBq | Mean absorbed dose estimate, Adrenals (Mean ± SD, n = 4 males): 3.47E-03 ± 1.13E-04 mSv/MBq | Mean absorbed dose estimate, Bone (red marrow) (Mean ± SD, n = 4 males): 3.75E-03 ± 4.17E-04 mSv/MBq | Mean absorbed dose estimate, Brain (Mean ± SD, n = 4 males): 1.37E-03 ± 3.00E-04 mSv/MBq | Mean absorbed dose estimate, Breasts (Mean ± SD, n = 4 males): 1.95E-03 ± 8.35E-05 mSv/MBq | Mean absorbed dose estimate, Heart wall (Mean ± SD, n = 4 males): 4.66E-03 ± 3.36E-04 mSv/MBq | Mean absorbed dose estimate, Lower large intestine wall (Mean ± SD, n = 4 males): 2.83E-03 ± 8.88E-05 mSv/MBq | Mean absorbed dose estimate, Lungs (Mean ± SD, n = 4 males): 5.62E-03 ± 1.05E-03 mSv/MBq | Mean absorbed dose estimate, Muscle (Mean ± SD, n = 4 males): 2.25E-03 ± 6.29E-05 mSv/MBq | Mean absorbed dose estimate, Osteogenic cells (Mean ± SD, n = 4 males): 3.98E-03 ± 2.42E-04 mSv/MBq | Mean absorbed dose estimate, Ovaries (Mean ± SD, n = 4 males): 3.07E-03 ± 1.25E-04 mSv/MBq | Mean absorbed dose estimate, Pancreas (Mean ± SD, n = 4 males): 5.27E-03 ± 2.20E-03 mSv/MBq | Mean absorbed dose estimate, Skin (Mean ± SD, n = 4 males): 1.73E-03 ± 6.60E-05 mSv/MBq | Mean absorbed dose estimate, Small intestine (Mean ± SD, n = 4 males): 9.29E-03 ± 2.33E-03 mSv/MBq | Mean absorbed dose estimate, Stomach wall (Mean ± SD, n = 4 males): 2.83E-03 ± 6.34E-05 mSv/MBq | Mean absorbed dose estimate, Testes (Mean ± SD, n = 4 males): 2.03E-03 ± 1.05E-04 mSv/MBq | Mean absorbed dose estimate, Thymus (Mean ± SD, n = 4 males): 2.31E-03 ± 9.59E-05 mSv/MBq | Mean absorbed dose estimate, Thyroid (Mean ± SD, n = 4 males): 5.96E-03 ± 1.73E-03 mSv/MBq | Mean absorbed dose estimate, Total Body (Mean ± SD, n = 4 males): 2.84E-03 ± 6.24E-05 mSv/MBq | Mean absorbed dose estimate, Upper large intestine wall (Mean ± SD, n = 4 males): 4.86E-03 ± 7.38E-04 mSv/MBq | Mean absorbed dose estimate, Uterus (Mean ± SD, n = 4 males): 3.21E-03 ± 2.24E-04 mSv/MBq | Mean absorbed dose estimate, Gallbladder wall (Mean ± SD, one subject with cholecystectomy removed): 5.00E-03 ± 4.43E-04 mSv/MBq | background uptake in the brain (PET imaging, 4 adult males): low background uptake in the brain | estimated absorbed dose in the spleen [1]: 4.1 mSv | estimated effective dose [1]: 1.6 mSv | estimated absorbed dose in the liver (average injected activity of 346 MBq (9.4 mCi), highest uptake organ): 4.9 mSv
SMILES: COc1cc(Cc2cnc(N)nc2N)cc(OC)c1O[11CH3] [[^11C]TMP, [^11C]trimethoprim]
Effective dose (Mean ± SD, n = 4 males): 4.53E-03 mSv/MBq and 4.53E-03 ± 2.22E-04 mSv/MBq | Mean absorbed dose estimate, Kidneys (Mean ± SD, n = 4 males): 1.35E-02 mSv/MBq and 1.35E-02 ± 2.44E-03 mSv/MBq | Mean absorbed dose estimate, Liver (Mean ± SD, n = 4 males): 1.43E-02 mSv/MBq and 1.43E-02 ± 1.58E-03 mSv/MBq | Mean absorbed dose estimate, Spleen (Mean ± SD, n = 4 males): 1.18E-02 mSv/MBq and 1.18E-02 ± 4.64E-03 mSv/MBq | Mean absorbed dose estimate, Urinary bladder wall (Mean ± SD, n = 4 males): 1.10E-02 mSv/MBq and 1.10E-02 ± 5.55E-03 mSv/MBq
